As a reminder, the logD is lipophilicity at a set pH, counting ionised and neutral species. High values mean higher lipophilicity, low ones lower lipophilicity. As a reminder, the Papp B→A is the apparent permeability from the basolateral to the apical side of a cell layer. For orientation: Papp A→B means how fast a substance crosses the layer from the apical side. The low end stands for poor permeation, the high end for ready permeation. For orientation: solubility means the concentration that dissolves in the medium under given conditions. As a reminder, the microsomal CLint is the capacity of the preparation to metabolise the compound, expressed as a volume cleared per time. A lower microsomal CLint goes with slow turnover.

The values that follow come from publication PMC6941357, “An in vitro toolbox to accelerate anti-malarial drug discovery and development” (Malaria Journal, 2020).

Series [1] in a line: Octanol/pH 7.4 buffer partition coefficient, shake flask. Particulars: octanol/pH 7.4 phosphate buffered saline, pH 7.4. The procedure:
Partition coefficients between octanol and pH 7.4 buffer were measured using a shake flask method. A stock solution of test compound in octanol was prepared at a concentration between 3 and 30 mg/mL based on the expected partition coefficient value. This stock solution was then diluted 3- and 10-fold with octanol and used to prepare the octanol phase for the partitioning experiments. Two different dilutions were used to confirm that there were no saturation effects. Phosphate buffered saline was prepared by combining 67 mM disodium hydrogen orthophosphate and sodium dihydrogen orthophosphate (both prepared in 43 mM NaCl) to a final pH of 7.4.
Partitioning experiments were conducted by mixing equal volumes of the octanol (containing test compound) and aqueous phases and placing on a vibrating plate mixer in an incubator at 37 °C. […] An aliquot of the aqueous phase was carefully removed and centrifuged again to ensure no contamination from the octanol phase before sampling in duplicate and diluting with aqueous methanol for analysis. Diluted samples were analysed by LC–MS along with calibration standards (Additional file 1: Table S2) and partition coefficients were calculated from the ratio of the mean octanol to buffer concentration after accounting for the dilution factors. The partitioning results for the two time points were used to confirm that the partitioning experiment had reached equilibrium.

The conditions of series [2]: human; cited from earlier work.
Series [3] is described as follows: Bidirectional permeability across Caco-2 cell monolayers. Particulars: human. Here is the method:
Bidirectional permeability was assessed across Caco-2 cell monolayers as described previously. Briefly, permeability experiments were performed using either aqueous transport buffer (pH 7.4 Hanks balanced salt solution containing 20 mM HEPES) or human plasma (Australian Red Cross Blood Service) in both the apical and basolateral chambers. […] The final DMSO concentration in the donor solution was 0.1% v/v.
Samples from the donor chamber were taken at the start and end of the experiment. […] Donor and acceptor samples were stored frozen at − 80 °C until analysis by LC–MS (Additional file 1: Table S2) with sample preparation as described previously. The mass balance and apparent permeability coefficient (Papp) were calculated as previously described.
Where human plasma was used as the transport medium, Papp values were calculated as shown above, with correction for the fraction unbound (fu) in the donor solution Cdonorinitial×fu with fu determined at a similar concentration to that used in the transport experiment. The apparent flux of lucifer yellow was based on an endpoint measurement assuming no lag time. The efflux ratio was calculated as the ratio of the mean B–A to A–B Papp values.
Background: Caco-2 monolayers are a common model of the intestinal barrier.

The nature of series [4]: Solubility in biorelevant media. Here is the method:
Solubility of each active pharmaceutical ingredient was evaluated at 37 °C in pH 7.4 phosphate buffered saline (prepared as described for the partitioning experiments), fasted (FaSSIF-V2) and fed (FeSSIF-V2) state simulated intestinal fluids and fasted state simulated gastric fluid (FaSSGF) as described by Jantratid et al.. […] Samples were vortexed and placed in a 37 °C incubator on an orbital mixer (IKA® VXR basic Vibrax® orbital mixer) set at 600 rpm. Sampling times were 1 h for FaSSGF or 5–6 h for FaSSIF-V2, FeSSIF-V2, and PBS. These times were used to reflect the maximal likely residence times within the stomach and small intestine, respectively. Sampling was carried out by centrifuging each sample at 10,000 rpm for 3 min, transferring 300 µL aliquots into fresh Eppendorf tubes and centrifuging these tubes again at 10,000 rpm for 3 min. Triplicate aliquots of the supernatant were then removed and diluted 1:2 in 50% aqueous methanol and then again in 50% aqueous acetonitrile to be within the analytical concentration range. Samples were analysed by LC–MS along with calibration standards (Additional file 1: Table S2).

A short description of series [5]: Solubility limited absorbable dose (SLAD) calculation with predicted human jejunal Peff. From the text: Predicted Peff values were obtained from a calibration plot of literature Peff values vs measured Caco-2 Papp using either buffer or plasma as the transport medium (see Results section).
In a further series the test system is human liver microsomes. Particulars: microsomal protein 0.5 mg/mL; ref [23]–[28] of Additional file 1; cited from earlier work.
A short description of series [6]: In vitro metabolism (metabolic stability) in human liver microsomes. Particulars: human, microsomes. Here is the method: The metabolic stability assay was adapted from a previously published method. […] Reactions were quenched at 2, 5, 15, 30 and 60 min by the addition of acetonitrile containing 150 ng/mL diazepam as internal standard. Control samples (containing no cofactor) were included (quenched at 2, 30 and 60 min) to monitor degradation in the absence of cofactor. Concentrations were determined by LC–MS (Additional file 1: Table S2) by comparison to the response for a single point calibration standard prepared in quenched microsomal matrix.
Test compound concentration versus time data were fit using an exponential decay function to determine the first-order rate constant for substrate depletion. Where deviation from first-order kinetics was evident, only the initial linear portion of the logarithmic profile was utilized to determine the initial degradation rate constant (k, min^−1). Each substrate depletion rate constant was then used to calculate the in vitro intrinsic clearance value (CLint, in vitro, µL/min/mg protein) using Eq.
Unbound in vitro CLint values were obtained by dividing the measured CLint by the measured fu in microsomes.
Background: Microsomes from liver hold many membrane-bound enzymes, among them those of drug oxidation.

The structures appear in SMILES notation. In brackets after ≈: the same amount, converted by molar mass. Several values for one entry are separate records, joined by “and”; a condition that tells them apart may be missing. Equal entries are not always repeated. Where only a bound is given, the exact number is not on record here.

For the molecule `c1cc([C@H]2CC[C@]3(CC2)OO[C@]2(O3)C3CC4CC(C3)CC2C4)ccc1OCCN1CCOCC1` [OZ439], the logD in series [1] was above 5. Besides, the Food effect result in series [2] is reported as “yes”. The V/F in series [2] is reported as 1570 L. The Papp B→A in series [3] (Caco-2) is above 300 ×10⁻⁶ cm/s. In addition, the Papp A→B in series [3] (Caco-2, A–B Papp, matrix: human plasma, corrected for fu) is above 300 ×10⁻⁶ cm/s. In series [4] (FaSSGF), this molecule came in with a FaSSGF solubility of 79 µg/mL. Further, in series [4] (FaSSGF, 37 °C, fassgf or other biorelevant, thermodynamic from solid), the solubility at 1 h was 79 µg/mL and 168 µM. Further, in series [4] (FaSSIF), the FaSSIF solubility stood at 40.6 µg/mL. The solubility in series [4] (FaSSIF-V2, 37 °C, fassif, thermodynamic from solid) is 40.6 µg/mL and 87 µM; in series [4] (FeSSIF-V2, 37 °C, fessif, thermodynamic from solid), 526 µg/mL and 1120 µM; in series [4] (phosphate buffered saline pH 7.4, 37 °C, pH 7.4, aqueous buffer, thermodynamic from solid), 0.085 µg/mL and 0.181 µM; in series [5] (FaSSIF), 40.6 µg/mL (≈ 86.5 µM). Moreover, in series [5] (Peff × tres/R, minimum 1), the “An (absorption number)” value is given as 13. For the same molecule, in series [5] (Ssi × V (500 mL) × Mp), the SLAD is on record as 270 mg. Further, the “Predicted human Peff” value in series [5] (from Caco-2 Papp via calibration plot) was 11 10^−4 cm/s.
For `Cc1ncc2n1-c1ccc(Cl)cc1C(c1ccccc1F)=NC2` [midazolam], in the series with human liver microsomes, the “Literature CLint” value is 353 µL/min/mg and 178 µL/min/mg and 287 µL/min/mg. Moreover, the microsomal CLint at 1 µM in series [6] (pH 7.4, Mean CLint, control compounds, mean (S.D.)) was 272 µL/min/mg; in series [6] (pH 7.4, Range HLM CLint, control compounds, 6–21 independent measurements, 0.4 mg/mL), 240 to 300 µL/min/mg.
On to `CCOc1ccc(NC(C)=O)cc1` [phenacetin], for which, in the series on human liver microsomes, the “Literature CLint” value is 27 µL/min/mg and 22.2 µL/min/mg. Further, the microsomal CLint at 1 µM was 21.4 µL/min/mg in series [6] (pH 7.4, Mean CLint) and 13.3 to 31.1 µL/min/mg in series [6] (pH 7.4, Range HLM CLint).
